According to ChEMBL document CHEMBL1201862, “PubChem BioAssay data set” (2004):
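Cultured in 96-well plates, cells were exposed to test compound for 48 hours across five concentrations. At the GI50, growth is halved.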 Calls of active or inactive are those of the source. Rule as the data show it: active = GI50 up to about 1.1 µM and inactive = higher.

Legend:
Test in all cases: DTP human tumour cell line panel, 48 h
XF498 = test system: XF498
SN12C = test system: SN12C
HCT-15 = test system: HCT-15
SK-MEL-2 = test system: SK-MEL-2
UACC-62 = test system: UACC-62
HOP-92 = test system: HOP-92
U-251 = test system: U-251
SNB-19 = test system: SNB-19
MOLT-4 = test system: MOLT-4
LOX IMVI = test system: LOX IMVI
A498 = test system: A498
HL-60 = test system: HL-60
EKVX = test system: EKVX
OVCAR-4 = test system: OVCAR-4
SK-MEL-28 = test system: SK-MEL-28
KM-20L2 = test system: KM-20L2
UO-31 = test system: UO-31
Malme-3M = test system: Malme-3M
IGROV-1 = test system: IGROV-1
KM12 = test system: KM12
OVCAR-5 = test system: OVCAR-5
COLO 205 = test system: COLO 205
TK-10 = test system: TK-10
RXF 393 = test system: RXF 393
NCI-H460 = test system: NCI-H460
OVCAR-3 = test system: OVCAR-3
M19-MEL = test system: M19-MEL
A549 = test system: A549
DLD-1 = test system: DLD-1
SF-295 = test system: SF-295
HOP-18 = test system: HOP-18
M14 = test system: M14
LXFL 529 = test system: LXFL 529
CAKI-1 = test system: CAKI-1
SF-268 = test system: SF-268
786-0 = test system: 786-0
DMS-273 = test system: DMS-273
UACC-257 = test system: UACC-257
NCI-H522 = test system: NCI-H522
CCRF-CEM = test system: CCRF-CEM
SK-OV-3 = test system: SK-OV-3
RXF 631 = test system: RXF 631
HT-29 = test system: HT-29
SW-620 = test system: SW-620
SNB-78 = test system: SNB-78
RPMI-8226 = test system: RPMI-8226
K562 = test system: K562
OVCAR-8 = test system: OVCAR-8
ACHN = test system: ACHN
NCI-H23 = test system: NCI-H23
SK-MEL-5 = test system: SK-MEL-5
SNB-75 = test system: SNB-75
HCT-116 = test system: HCT-116
SF-539 = test system: SF-539
HOP-62 = test system: HOP-62
HCC 2998 = test system: HCC 2998
NCI-H226 = test system: NCI-H226
SR = test system: SR
DMS-114 = test system: DMS-114

Cc1cc(C)nc(NS(=O)(=O)c2ccc(NC(=O)c3cccc4c(Nc5ccc(S(=O)(=O)Nc6nc(C)cc(C)n6)cc5)c5ccccc5nc34)cc2)n1
GI50 (XF498): 33.6 µM (inactive)
GI50 (SN12C): 14.3 µM (inactive)
GI50 (HCT-15): 21.6 µM
GI50 (SK-MEL-2): 34 µM (inactive)
GI50 (UACC-62): 19.1 µM (inactive)
GI50 (HOP-92): 18.9 µM (inactive)
GI50 (U-251): 16.4 µM (inactive)
GI50 (SNB-19): 10.2 µM (inactive)
GI50 (MOLT-4): 22.4 µM (inactive)
GI50 (LOX IMVI): 17.6 µM (inactive)
GI50 (A498): 18.7 µM (inactive)
GI50 (HL-60): 18.1 µM (inactive)
GI50 (EKVX): 24.2 µM (inactive)
GI50 (OVCAR-4): 25.7 µM (inactive)
GI50 (SK-MEL-28): 14.6 µM (inactive)
GI50 (KM-20L2): 20.1 µM (inactive)
GI50 (UO-31): 17.7 µM (inactive)
GI50 (Malme-3M): 27.6 µM (inactive)
GI50 (IGROV-1): 32.8 µM (inactive)
GI50 (KM12): 18.5 µM (inactive)
GI50 (OVCAR-5): > 10 µM (inactive)
GI50 (COLO 205): 22.9 µM (inactive)
GI50 (TK-10): 27.2 µM (inactive)
GI50 (RXF 393): 14.7 µM (inactive)
GI50 (NCI-H460): 32 µM (inactive)
GI50 (OVCAR-3): 19.9 µM (inactive)
GI50 (M19-MEL): 29.5 µM (inactive)
GI50 (A549): 25.8 µM (inactive)
GI50 (DLD-1): 19 µM (inactive)
GI50 (SF-295): 21.4 µM (inactive)
GI50 (HOP-18): 12.2 µM (inactive)
GI50 (M14): 25.1 µM (inactive)
GI50 (LXFL 529): 21.3 µM (inactive)
GI50 (CAKI-1): 22.8 µM (inactive)
GI50 (SF-268): 12.9 µM (inactive)
GI50 (786-0): 19.6 µM (inactive)
GI50 (DMS-273): 17.9 µM (inactive)
GI50 (UACC-257): 23 µM (inactive)
GI50 (NCI-H522): 13.2 µM (inactive)
GI50 (CCRF-CEM): 22.2 µM (inactive)
GI50 (SK-OV-3): 26 µM (inactive)
GI50 (RXF 631): 18.1 µM (inactive)
GI50 (HT-29): 20 µM (inactive)
GI50 (SW-620): 28.1 µM (inactive)
GI50 (SNB-78): 39.6 µM (inactive)
GI50 (RPMI-8226): 20.2 µM (inactive)
GI50 (K562): 19.4 µM (inactive)
GI50 (OVCAR-8): 24.7 µM (inactive)
GI50 (ACHN): 23.4 µM (inactive)
GI50 (NCI-H23): 20.3 µM (inactive)
GI50 (SK-MEL-5): 16.6 µM (inactive)
GI50 (SNB-75): 3.44 µM (inactive)
GI50 (HCT-116): 11.7 µM (inactive)
GI50 (SF-539): 15.4 µM (inactive)
GI50 (HOP-62): 21 µM (inactive)

c1ccc(C2CC(c3ccc4ccccc4c3)=Nc3ccccc3S2)cc1 (configuration not stated)
GI50 (XF498): 17.4 µM (inactive)
GI50 (SN12C): 16.7 µM (inactive)
GI50 (SK-MEL-2): 18.1 µM (inactive)
GI50 (UACC-62): 16.9 µM (inactive)
GI50 (HCC 2998): 11.9 µM (inactive)
GI50 (U-251): 17.3 µM (inactive)
GI50 (SNB-19): 19.1 µM (inactive)
GI50 (MOLT-4): 30.4 µM (inactive)
GI50 (LOX IMVI): 15.7 µM (inactive)
GI50 (A498): 17.3 µM (inactive)
GI50 (HL-60): 19.5 µM (inactive)
GI50 (EKVX): 23.2 µM (inactive)
GI50 (OVCAR-4): 19.5 µM (inactive)
GI50 (SK-MEL-28): 18.3 µM (inactive)
GI50 (KM-20L2): 18.3 µM (inactive)
GI50 (NCI-H226): 19.4 µM (inactive)
GI50 (UO-31): 12.5 µM (inactive)
GI50 (Malme-3M): 19.4 µM (inactive)
GI50 (IGROV-1): 22.8 µM (inactive)
GI50 (KM12): 17.7 µM (inactive)
GI50 (OVCAR-5): 21.8 µM (inactive)
GI50 (TK-10): 22.3 µM (inactive)
GI50 (RXF 393): 19.1 µM (inactive)
GI50 (NCI-H460): 15.7 µM (inactive)
GI50 (OVCAR-3): 17.3 µM (inactive)
GI50 (SR): 23.7 µM (inactive)
GI50 (M19-MEL): 18.7 µM (inactive)
GI50 (A549): 18.3 µM (inactive)
GI50 (DLD-1): > 10 µM (inactive)
GI50 (SF-295): 17.9 µM (inactive)
GI50 (HOP-18): 19.4 µM (inactive)
GI50 (M14): 15.8 µM (inactive)
GI50 (LXFL 529): 14.5 µM (inactive)
GI50 (CAKI-1): > 10 µM (inactive)
GI50 (SF-268): 17 µM (inactive)
GI50 (786-0): 16.6 µM (inactive)
GI50 (DMS-273): 21.3 µM (inactive)
GI50 (UACC-257): 19.5 µM (inactive)
GI50 (NCI-H522): 17 µM (inactive)
GI50 (CCRF-CEM): 26.1 µM (inactive)
GI50 (SK-OV-3): 38.5 µM (inactive)
GI50 (RXF 631): 24.3 µM (inactive)
GI50 (HT-29): 17.1 µM (inactive)
GI50 (SW-620): 18.8 µM (inactive)
GI50 (SNB-78): 18.6 µM (inactive)
GI50 (RPMI-8226): 3.26 µM (inactive)
GI50 (K562): 20 µM (inactive)
GI50 (OVCAR-8): 16.3 µM (inactive)
GI50 (ACHN): 16.7 µM (inactive)
GI50 (NCI-H23): 14.8 µM (inactive)
GI50 (SK-MEL-5): 18.9 µM (inactive)
GI50 (SNB-75): 15.6 µM (inactive)
GI50 (HCT-116): 14.8 µM (inactive)
GI50 (SF-539): 16.7 µM (inactive)
GI50 (HOP-62): 17.1 µM (inactive)

CC1OC(=O)N2CCC=CC12 (configuration not stated)
GI50 (XF498): > 100 µM (inactive)
GI50 (SN12C): > 100 µM (inactive)
GI50 (HCT-15): > 100 µM
GI50 (SK-MEL-2): > 100 µM (inactive)
GI50 (UACC-62): > 100 µM (inactive)
GI50 (U-251): > 100 µM (inactive)
GI50 (SNB-19): > 100 µM (inactive)
GI50 (MOLT-4): > 100 µM (inactive)
GI50 (LOX IMVI): > 100 µM (inactive)
GI50 (DMS-114): > 100 µM (inactive)
GI50 (A498): > 100 µM (inactive)
GI50 (EKVX): > 100 µM (inactive)
GI50 (OVCAR-4): > 100 µM (inactive)
GI50 (SK-MEL-28): > 100 µM (inactive)
GI50 (KM-20L2): > 100 µM (inactive)
GI50 (NCI-H226): > 100 µM (inactive)
GI50 (UO-31): > 100 µM (inactive)
GI50 (Malme-3M): > 100 µM (inactive)
GI50 (IGROV-1): > 100 µM (inactive)
GI50 (KM12): > 100 µM (inactive)
GI50 (OVCAR-5): > 100 µM (inactive)
GI50 (COLO 205): > 100 µM (inactive)
GI50 (TK-10): > 100 µM (inactive)
GI50 (RXF 393): > 100 µM (inactive)
GI50 (NCI-H460): > 100 µM (inactive)
GI50 (OVCAR-3): > 100 µM (inactive)
GI50 (M19-MEL): > 100 µM (inactive)
GI50 (A549): > 100 µM (inactive)
GI50 (DLD-1): > 100 µM (inactive)
GI50 (SF-295): > 100 µM (inactive)
GI50 (HOP-18): > 100 µM (inactive)
GI50 (LXFL 529): > 100 µM (inactive)
GI50 (SF-268): > 100 µM (inactive)
GI50 (786-0): > 100 µM (inactive)
GI50 (DMS-273): > 100 µM (inactive)
GI50 (UACC-257): > 100 µM (inactive)
GI50 (NCI-H522): > 100 µM (inactive)
GI50 (CCRF-CEM): > 100 µM (inactive)
GI50 (SK-OV-3): > 100 µM (inactive)
GI50 (RXF 631): > 100 µM (inactive)
GI50 (HT-29): > 100 µM (inactive)
GI50 (SW-620): > 100 µM (inactive)
GI50 (SNB-78): > 100 µM (inactive)
GI50 (RPMI-8226): > 100 µM (inactive)
GI50 (K562): > 100 µM (inactive)
GI50 (OVCAR-8): > 100 µM (inactive)
GI50 (ACHN): > 100 µM (inactive)
GI50 (NCI-H23): > 100 µM (inactive)
GI50 (SK-MEL-5): > 100 µM (inactive)
GI50 (SNB-75): > 100 µM (inactive)
GI50 (HCT-116): > 100 µM (inactive)
GI50 (SF-539): > 100 µM (inactive)
